{
  "source": "patent US20240368163A1",
  "about": "“COMPOUNDS AND METHODS FOR MODULATING SPLICING” (REMIX THERAPEUTICS INC., priority 2021, published 2024)",
  "format_in_all_cases": "cell-based, human",
  "key": {"Target C [1]": {"tested_on": "Target C", "experiment": "Splicing RT-qPCR panel, Target C canonical junction (CJ) mRNA", "conditions": "Homo sapiens, gene panel, CJ qPCR, protocol of Example 142; read-out: Target C IC50 (decrease in CJ mRNA levels)", "summary_of_the_method": "(§1)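 Cells: A673 (DMEM/10% FBS) or K562 (IMDM/10% FBS). Dose: 11-pt 3-fold, top 10 uM final, ≤0.25% DMSO, 24 h, 37 °C. Readout: RT-qPCR of CJ/AJ exon junctions, ΔΔCt vs housekeeper and DMSO, RQ to % response.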"}, "Target C [2]": {"tested_on": "Target C", "experiment": "HiBiT protein abundance assay, Target C", "conditions": "Homo sapiens, K562, 24 h, Table 13B, modified K562 cells", "summary_of_the_method": "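Knock-in HiBiT clones, 10000/well; 10-pt 3-fold titration, top 10 μM final; DMSO ≤0.25%; 24 h, 37 °C, 5% CO2. Lytic HiBiT luminescence readout. 4PL fit, IC50 = concentration giving 50% of untreated abundance.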"}, "MYB": {"tested_on": "MYB", "experiment": "Splicing RT-qPCR assay, MYB mRNA canonical junction (CJ) and alternative junction (AJ)", "conditions": "Homo sapiens, gene panel, CJ qPCR, protocol of Example 142; read-out: MYB IC50 (decrease in CJ mRNA levels)", "summary_of_the_method": "as §1"}, "HTT": {"tested_on": "HTT", "experiment": "Splicing RT-qPCR assay, HTT mRNA canonical junction (CJ) and alternative junction (AJ)", "conditions": "Homo sapiens, gene panel, CJ qPCR, protocol of Example 142; read-out: HTT IC50 (decrease in CJ mRNA levels)", "summary_of_the_method": "as §1"}},
  "data": [
    {"smiles": "COc1nc(-c2ccc(N(C)[C@@H]3C[C@H]4CC[C@@H](C3)N4)nn2)ccc1-c1ccnc(O)c1", "note": "[Compound 961]", "values": [
      {"measurement": "IC50", "setting": "Target C [1]", "result": "100 to 1000", "unit": "nM"},
      {"measurement": "IC50", "setting": "Target C [2]", "result": "100 to 1000", "unit": "nM"},
      {"measurement": "IC50", "setting": "MYB", "result": "100 to 1000", "unit": "nM"},
      {"measurement": "IC50", "setting": "HTT", "result": "100 to 1000", "unit": "nM"}
    ]},
    {"smiles": "COc1nc(-c2ccc(O[C@@H]3C[C@H]4CC[C@@H](C3)N4)nn2)ccc1-c1cnc(C)s1", "note": "[Compound 962]", "values": [
      {"measurement": "IC50", "setting": "Target C [1]", "result": "1000 to 10000", "unit": "nM"},
      {"measurement": "IC50", "setting": "Target C [2]", "result": "100 to 1000", "unit": "nM"},
      {"measurement": "IC50", "setting": "MYB", "result": "100 to 1000", "unit": "nM"},
      {"measurement": "IC50", "setting": "HTT", "result": "100 to 1000", "unit": "nM"}
    ]},
    {"smiles": "COc1nc(-c2ccc(OC3CC(C)(C)NC(C)(C)C3)nn2)cc(F)c1-c1cn[nH]c1", "note": "[Compound 965]", "values": [
      {"measurement": "IC50", "setting": "Target C [1]", "result": "100 to 1000", "unit": "nM"},
      {"measurement": "IC50", "setting": "Target C [2]", "result": "< 100", "unit": "nM"},
      {"measurement": "IC50", "setting": "MYB", "result": "100 to 1000", "unit": "nM"},
      {"measurement": "IC50", "setting": "HTT", "result": "< 100", "unit": "nM"}
    ]},
    {"smiles": "CCOc1nc(-c2ccc(OC3CC(C)(C)NC(C)(C)C3)nn2)cc(F)c1-c1cn[nH]c1", "note": "[Compound 966]", "values": [
      {"measurement": "IC50", "setting": "Target C [1]", "result": "< 100", "unit": "nM"},
      {"measurement": "IC50", "setting": "Target C [2]", "result": "< 100", "unit": "nM"},
      {"measurement": "IC50", "setting": "MYB", "result": "100 to 1000", "unit": "nM"},
      {"measurement": "IC50", "setting": "HTT", "result": "< 100", "unit": "nM"}
    ]},
    {"smiles": "CCOc1nc(-c2ccc(OC3CC(C)(C)NC(C)(C)C3)nn2)ccc1-c1cn[nH]c1", "note": "[Compound 967]", "values": [
      {"measurement": "IC50", "setting": "Target C [1]", "result": "100 to 1000", "unit": "nM"},
      {"measurement": "IC50", "setting": "Target C [2]", "result": "< 100", "unit": "nM"},
      {"measurement": "IC50", "setting": "MYB", "result": "100 to 1000", "unit": "nM"},
      {"measurement": "IC50", "setting": "HTT", "result": "< 100", "unit": "nM"}
    ]},
    {"smiles": "COc1nc(-c2ccc(OC3CC4CC(F)(F)C(C3)N4)nn2)cc(F)c1-c1cn[nH]c1", "note": "(stereo not drawn) [Compound 969]", "values": [
      {"measurement": "IC50", "setting": "Target C [1]", "result": "> 10000", "unit": "nM"},
      {"measurement": "IC50", "setting": "Target C [2]", "result": "100 to 1000", "unit": "nM"},
      {"measurement": "IC50", "setting": "MYB", "result": "> 10000", "unit": "nM"},
      {"measurement": "IC50", "setting": "HTT", "result": "1000 to 10000", "unit": "nM"}
    ]}
  ]
}
